From patent US9737073B2, “Herbicidal weed control from combinations of fluroxypyr and ALS inhibitors” (Dow AgroSciences LLC, priority 2014, dated 2017)

Tests used:
Assay type in all cases: in vivo
[1] = test system: Chenopodium album (common lambsquarters, CHEAL); test: Postemergence herbicidal weed control, fluroxypyr-meptyl and cloransulam-methyl, field trials (Table 2)
Experimental: (§1) Seeds of the desired test plant species were planted in a peat-based potting soil, Metro-Mix 360® in plastic pots with a surface area of 128 square centimeters (cm^2). Metro-Mix 360® consists of formulated Canadian sphagnum peat moss, coarse perlite, bark ash, a starter nutrient charge (with gypsum), a slow-release nitrogen and dolomitic limestone. The plants were grown for 7-19 days in a greenhouse with an approximate 14-hour (h) photoperiod which was maintained at about 29° C. during the day and 26° C. during the night. Nutrients and water were added on a regular basis and supplemental lighting was provided with overhead metal halide 1000-Watt lamps as necessary. The plants were treated with postemergence foliar applications when they reached the third to fourth true leaf stage. All treatments were applied using a randomized complete block trial design, with 4 replications per treatment.
(§2) Treatments consisted of the compounds as listed in Tables 1 to 4, each compound applied alone and in combination. Commercially formulated products of fluroxypyr-meptyl (STARANE™, 333 grams acid equivalent per liter (g ae/L) EC), diclosulam (SPIDER® 84WG), cloransulam-methyl (FIRSTRATE™ 84WG), chlorimuron-ethyl (CLASSIC® 25WG) and thifensulfuron-methyl (HARMONY® 50SG). Formulated amounts of fluroxypyr-meptyl, diclosulam, cloransulam-methyl, chlorimuron-ethyl and thifensulfuron-methyl were placed in 60 milliliter (mL) glass vials and dissolved in a volume of 30 or 60 mL of a water solution containing Agri-dex crop oil concentrate in a 1% volume per volume (v/v) ratio. Compound requirements are based upon either a 30- or a 60-mL application volume at a rate of 200 liters per hectare (L/ha). Spray solutions of the mixtures were prepared by adding the stock solutions to the appropriate amount of dilution solution to form either a 30- or a 60-mL spray solution with active ingredients in single and two-way combinations. Formulated compounds were applied to the plant material with an overhead Generation III Research Sprayer manufactured by DeVries Manufacturing in Hollandale, Minn., USA. The track sprayer was equipped with an 8003E nozzle calibrated to deliver 200 L/ha at a spray height of 18 inches (43 centimeters (cm)) above average plant canopy.
(§3) The treated plants and untreated control plants were placed in a greenhouse as described above and watered by sub-irrigation to prevent wash-off of the test compounds.
(§4) Treatments were rated at 7 to 21 days after application (DAA) as compared to the untreated control plants. Visual weed control was scored on a scale of 0 to 100 percent where 0 corresponds to no injury and 100 corresponds to complete kill.
(§5) Field trials were conducted using standard herbicide small plot research methodology. Plots varied from 3×3.3 meter (m) to 4.5×10 m (width×length) with 4 replicates per treatment. The crops used in the field trials were grown using normal cultural practices for land preparation, fertilization, seeding and maintenance to ensure good growth of the crop and the weeds.
All treatments in the field trials were applied using either pressurized air or carbon dioxide (CO2) backpack or bicycle sprayers calibrated to apply 100-187 L/ha spray volume. Flat Fan spray nozzles were used in all trials, with water as the diluent applied at 275-300 kilopascals (kPa). Weed sizes at application ranged from 10 to 40 cm tall. Commercially available products of fluroxypyr-meptyl (STARANE™, 180 and 333 g ae/L EC), diclosulam (SPIDER® 84WG), and thifensulfuron-methyl (HARMONY® 75WG) were mixed in water at appropriately formulated product rates to achieve the desired rates based on a unit area of application (hectare) to achieve the desired rates as shown. No adjuvants were tank-mixed with any treatments applied in the field trials. […] Visual weed control was scored on a scale of 0 to 100 percent where 0 corresponds to no injury and 100 corresponds to complete kill. […]

[2] = test system: Abutilon theophrasti (velvetleaf, ABUTH); test: Postemergence herbicidal weed control, fluroxypyr-meptyl and chlorimuron-ethyl, field trials (Table 3)
Experimental: as §1, §2, §3, §4, §5
All treatments in the field trials were applied using either pressurized air or carbon dioxide (CO2) backpack or bicycle sprayers calibrated to apply 100-187 L/ha spray volume. Flat Fan spray nozzles were used in all trials, with water as the diluent applied at 275-300 kilopascals (kPa). Weed sizes at application ranged from 10 to 40 cm tall. Commercially available products of fluroxypyr-meptyl (STARANE™, 180 and 333 g ae/L EC), diclosulam (SPIDER® 84WG), and thifensulfuron-methyl (HARMONY® 75WG) were mixed in water at appropriately formulated product rates to achieve the desired rates based on a unit area of application (hectare) to achieve the desired rates as shown. No adjuvants were tank-mixed with any treatments applied in the field trials. Treatments were rated at 14-26 days after application as compared to the untreated control plants. […]

[3] = test system: Chenopodium album (common lambsquarters, CHEAL); test: Postemergence herbicidal weed control, fluroxypyr-meptyl and thifensulfuron-methyl, field trials (Table 4); conditions: 21DAA1, 17.5 g ae/ha
Experimental: as §5
(§6) All treatments in the field trials were applied using either pressurized air or carbon dioxide (CO2) backpack or bicycle sprayers calibrated to apply 100-187 L/ha spray volume. Flat Fan spray nozzles were used in all trials, with water as the diluent applied at 275-300 kilopascals (kPa). Weed sizes at application ranged from 10 to 40 cm tall. Commercially available products of fluroxypyr-meptyl (STARANE™, 180 and 333 g ae/L EC), diclosulam (SPIDER® 84WG), and thifensulfuron-methyl (HARMONY® 75WG) were mixed in water at appropriately formulated product rates to achieve the desired rates based on a unit area of application (hectare) to achieve the desired rates as shown. No adjuvants were tank-mixed with any treatments applied in the field trials. Treatments were rated at 14-26 days after application as compared to the untreated control plants. Visual weed control was scored on a scale of 0 to 100 percent where 0 corresponds to no injury and 100 corresponds to complete kill.
(§7) The treated plots and control plots were rated blind at various intervals after application. Ratings were reported on a Percent (%) Visual Control basis, where 0 corresponds to no visual effect/weed control and 100 corresponds to complete kill of the target weeds.
(§8) Colby's equation was used to determine the herbicidal effects expected from the mixtures (Colby, S. R. Calculation of the synergistic and antagonistic response of herbicide combinations. Weeds 196715, 20-22). A t-test (alpha=0.05) between Colby predictions and observed combinations was used to test for significant differences indicating synergy or antagonism. The results presented in the Tables were significant according to the described criteria.
(§9) The following equation was used to calculate the expected activity of mixtures containing two active ingredients, A and B: Expected=A+B−(A×B/100) • A=observed efficacy of active ingredient A at the same concentration as used in the mixture; • B=observed efficacy of active ingredient B at the same concentration as used in the mixture.

[4] = test system: Polygonum convolvulus L. (wild buckwheat, POLCO); test: as above; conditions: 21DAA1, 17.5 g ae/ha
Experimental: as §5, §6, §7, §8, §9

[5] = test system: Amaranthus retroflexus L. (redroot pigweed, AMARE); test: as above; conditions: 21DAA1, 17.5 g ae/ha
Experimental: as §5, §6, §7, §8, §9

`CCCCCCC(C)OC(=O)COc1nc(F)c(Cl)c(N)c1Cl` (centres unmarked) [Fluroxypyr-meptyl, fluroxypyr-methylheptyl ester] was tested, and the “Fluroxypyr-meptyl Mean % weed control” value ([1]; 8DAA1, 25 g ae/ha) was 33.3%, the “Fluroxypyr-meptyl Mean % weed control” value ([1]; 14DAA1, 25 g ae/ha) was 10.0% and the “Fluroxypyr-meptyl Mean % weed control” value ([1]; 14DAA1, 100 g ae/ha) was 33.3%. For the same compound, the “Fluroxypyr-meptyl Mean % weed control” value ([1]; 21DAA1, 25 g ae/ha) was 18.3%, the “Fluroxypyr-meptyl Mean % weed control” value ([1]; 21DAA1, 50 g ae/ha) was 18.3% and the “Fluroxypyr-meptyl Mean % weed control” value ([1]; 21DAA1, 100 g ae/ha) was 21.0%. For the same compound, the “Fluroxypyr-meptyl Mean % weed control” value ([2]; 14DAA1, 50 g ae/ha) was 67.0%, the “Fluroxypyr-meptyl Mean % weed control” value ([2]; 14DAA1, 100 g ae/ha) was 80.8% and the “Fluroxypyr-meptyl Mean % weed control” value [3] was 3.8%. For the same compound, the “Fluroxypyr-meptyl Mean % weed control” value [4] was 2.5% and the “Fluroxypyr-meptyl Mean % weed control” value [5] was 3.8%.
